In PubChem BioAssay (NCI) one finds TGI and GI50 data, which are given here for 16 molecules.

Among the test systems are UACC-62 melanoma; HT29 colon; SK-MEL-2 melanoma; A549 NSCLC; MOLT-4 leukemia; M14 melanoma; IGROV1 ovarian; ACHN renal; HOP-92 NSCLC; T-47D breast.
Common to all, as to experiment: DTP human tumour cell line panel, 48 h

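Dose response: 5 concentrations. Exposure: 48 h. Format: 96-well plates. Endpoint: linear interpolation; highest concentration if not reached. Abbreviation: GI50, concentration required for 50% inhibition of growth. TGI denotes the concentration required for complete inhibition of growth.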

Turning to `C[C@]12CCC(=O)C=C1CC[C@@H]1C2CC[C@@]2(C)C1CC[C@@H]2OC(=O)C12OC1CCC2=O` (stereo partly specified), the TGI with UACC-62 melanoma was determined as 35.2 µM; with HT29 colon it was 33.4 µM; with SK-MEL-2 melanoma it was 29.8 µM; in the assay with A549 NSCLC, 54.6 µM; in the assay on MOLT-4 leukemia it was 32.6 µM; in the assay with M14 melanoma, 32.9 µM. Further, the TGI in the assay with IGROV1 ovarian was 23.6 µM; in the assay with ACHN renal, 29.3 µM; with HOP-92 NSCLC it was 37.2 µM.

With `COc1c(C)c(C/C=C(\C)CCCCO)c(OC)c2ccccc12`, the TGI with UACC-62 melanoma was over 100 µM; with HT29 colon, 43.7 µM; in the assay with SK-MEL-2 melanoma it was over 100 µM; with A549 NSCLC, over 100 µM; in the assay with MOLT-4 leukemia it was 43.1 µM; with M14 melanoma it was over 100 µM. Further, the TGI in the assay on IGROV1 ovarian is over 100 µM; with ACHN renal it was over 100 µM; in the assay on HOP-92 NSCLC, 80.4 µM.

For `COC(=O)CC1NC(=O)C1C(C)(OC)OC` (stereo unspecified), the TGI in the assay with UACC-62 melanoma, in the assay on HT29 colon, with SK-MEL-2 melanoma, in the assay with A549 NSCLC, in the assay with MOLT-4 leukemia and in the assay on M14 melanoma was over 100 µM throughout. Moreover, the TGI with IGROV1 ovarian and in the assay with ACHN renal was over 100 µM each time.

Regarding `COC(=O)C1Cc2c([nH]c3ccccc23)-c2[nH]c3ccccc3c2CC(NC(C)=O)C(=O)N2CCCC2C(=O)N1` (stereo unspecified), the TGI in the assay with UACC-62 melanoma, in the assay on HT29 colon, in the assay on SK-MEL-2 melanoma, in the assay with A549 NSCLC, in the assay with MOLT-4 leukemia and in the assay on IGROV1 ovarian was over 100 µM each time. The TGI with T-47D breast and with ACHN renal was over 100 µM each time.

In the case of `Cc1csc2c(=O)n(COCc3ccccc3)c(=O)[nH]c12`, the TGI with HT29 colon, with A549 NSCLC, in the assay on MOLT-4 leukemia, in the assay on M14 melanoma, in the assay with IGROV1 ovarian and in the assay with ACHN renal was over 100 µM each time. In the assay with HOP-92 NSCLC, this molecule gave a TGI of over 100 µM.

Regarding `Cn1c(=O)oc2cc(C(=S)N3CCCCC3)ccc21`, the TGI in the assay on UACC-62 melanoma, with HT29 colon, with SK-MEL-2 melanoma, with MOLT-4 leukemia, in the assay with M14 melanoma and in the assay with IGROV1 ovarian was over 100 µM each time. In the assay with ACHN renal, this molecule returned a TGI of over 100 µM.

`COc1cc(O)c2c(=O)c(OC)c(-c3ccc(OC)c(OC)c3)oc2c1.[Sn]`: the GI50 was over 100 µM in the assay on UACC-62 melanoma; over 100 µM in the assay with HT29 colon; 80.1 µM in the assay with MOLT-4 leukemia; over 100 µM in the assay with M14 melanoma; over 100 µM in the assay on IGROV1 ovarian; 7.91 µM in the assay on T-47D breast. Moreover, the GI50 in the assay with ACHN renal is over 100 µM. Further, the TGI with UACC-62 melanoma, in the assay on HT29 colon, in the assay on A549 NSCLC, in the assay with MOLT-4 leukemia, in the assay on M14 melanoma and with IGROV1 ovarian was over 100 µM each time. Moreover, the TGI in the assay on T-47D breast and with ACHN renal was over 100 µM in each case.

With `Brc1ccc(C[N+]23CN4CN(CN(C4)C2)C3)cc1`, the TGI with UACC-62 melanoma was 30.5 µM; in the assay on A549 NSCLC, over 100 µM; in the assay with MOLT-4 leukemia it was 69 µM; in the assay on M14 melanoma, 33 µM; with IGROV1 ovarian it was over 100 µM; in the assay with ACHN renal, over 100 µM.

Turning to `CN(C)CCNC(=O)c1cccc2[nH]c(-c3ccc(Cl)cc3)nc12`, the TGI in the assay on UACC-62 melanoma is 17.5 µM; with HT29 colon it was 16.6 µM; with SK-MEL-2 melanoma it was 26.5 µM; in the assay on A549 NSCLC, 17.7 µM; in the assay with MOLT-4 leukemia it was 5.5 µM; in the assay on IGROV1 ovarian it was 25.8 µM. The TGI with HOP-92 NSCLC came to 17 µM.

For the molecule `COc1ccc(C=NCCCN=Cc2ccc(OC)cc2O)c(O)c1`, the TGI with UACC-62 melanoma, with HT29 colon, in the assay with SK-MEL-2 melanoma, in the assay with A549 NSCLC, in the assay with MOLT-4 leukemia and in the assay with M14 melanoma was over 100 µM throughout. The figures for the TGI with IGROV1 ovarian, in the assay with ACHN renal and in the assay with HOP-92 NSCLC were over 100 µM, over 100 µM and 68.8 µM, respectively.

`CC(=O)N1CCN(CCCCN2c3ccccc3Sc3cc(N=[N+]=[N-])ccc32)CC1`: the TGI in the assay with UACC-62 melanoma stood at 9.21 µM; with HT29 colon, 27.8 µM; in the assay on A549 NSCLC, 30 µM; with MOLT-4 leukemia, 25.3 µM; with IGROV1 ovarian it was 29.1 µM; with T-47D breast, 15.2 µM. In the assay on ACHN renal, this molecule returned a TGI of 28.2 µM.

Regarding `O=C(NCCC1CN(S(=O)(=O)C(F)(F)F)c2ccccc21)OCc1ccccc1` (stereo unspecified), the TGI with UACC-62 melanoma, with HT29 colon, in the assay with SK-MEL-2 melanoma, in the assay with A549 NSCLC, in the assay on MOLT-4 leukemia and with M14 melanoma was over 100 µM in each case. Also, the TGI in the assay with IGROV1 ovarian, in the assay on ACHN renal and in the assay on HOP-92 NSCLC was over 100 µM each time.

As for `N#Cc1c(O)c(C=O)c(=O)n2c1[nH]c1ccccc12`, the TGI with UACC-62 melanoma, in the assay with HT29 colon, with A549 NSCLC, with MOLT-4 leukemia, with M14 melanoma and in the assay with IGROV1 ovarian was over 100 µM each time. Moreover, the TGI in the assay with ACHN renal and in the assay on HOP-92 NSCLC was over 100 µM throughout.

As to `CN1C(=O)[C@@H]2[C@@H]3c4ccccc4N[C@@H]3c3[nH]c4ccccc4c3[C@@H]2C1=O`, the concentration for total growth inhibition (TGI) with UACC-62 melanoma was 32.4 µM; in the assay on HT29 colon, over 100 µM; in the assay with SK-MEL-2 melanoma, 33.1 µM; in the assay on A549 NSCLC, 65.1 µM; in the assay on MOLT-4 leukemia, 55.6 µM; in the assay with IGROV1 ovarian, 26.9 µM. In addition, the TGI was found to be 49.9 µM in the assay with ACHN renal and 59.7 µM with HOP-92 NSCLC.

With `O=C(CBr)NCCc1c[nH]c2ccccc12`, the TGI in the assay on UACC-62 melanoma came out at 3.29 µM; in the assay on HT29 colon it was 3.51 µM; with SK-MEL-2 melanoma, 4.16 µM; with MOLT-4 leukemia, 1.92 µM; with M14 melanoma it was 3.24 µM; in the assay on IGROV1 ovarian it was 4.22 µM. The TGI in the assay with ACHN renal stood at 3.2 µM; with HOP-92 NSCLC it was 4.88 µM.

As to `CNC(=O)c1cc(Oc2cccc3nc(NC(=O)Nc4ccc(F)cc4F)ccc23)ccn1`, the figures for the GI50 with SK-MEL-2 melanoma, in the assay with M14 melanoma and in the assay on ACHN renal were over 50 µM, 1.89 µM and 2.13 µM, respectively. The TGI with SK-MEL-2 melanoma, in the assay on M14 melanoma and in the assay on ACHN renal was over 50 µM throughout.
